Assay results published in PMC3702004, “Comparison of Intake and Systemic Relative Effect Potencies of Dioxin-like Compounds in Female Mice after a Single Oral Dose” (Environmental Health Perspectives, 2013).

Legend:
[1] = toxic equivalency factor relative to TCDD; ref Van den Berg et al. 2006; cited from earlier work
[2] = Compound analysis: liver, adipose and plasma concentrations 3 days after a single oral dose; format: in vivo, female C57BL/6 mice; details: for liver:adipose ratio (hepatic sequestration criterion 0.3): Table 1 doses; for Liver:adipose ratio: based on ng/g tissue, day 3
Procedure: (§1) Animals. Eight-week-old female C57BL/6 mice (Harlan laboratories, Venray, the Netherlands) were randomly assigned to treatment groups (six animals per group) and allowed to acclimate for 1.5 weeks. The animals were housed in groups in standard cages and conditions (23 ± 2°C, 50–60% relative humidity, 12-hr dark/light cycle) with free access to food and water. Mice received a single dose of test compound by oral gavage at a dosing volume of 10 mL/kg body weight (BW). Mice treated with corn oil vehicle (10 mL/kg BW) served as controls. For each congener, five different doses were administered, ranging from 0.5–100 μg/kg BW (TCDD) to 5,000–500,000 µg/kg BW (PCB-153). Detailed information on doses is provided in Supplemental Material, Table S1 (http://dx.doi.org/10.1289/ehp.1206336). On day 3 after dosing, animals were euthanized by CO2/O2 asphyxiation, and blood was immediately collected from the abdominal aorta. The liver, thymus, spleen, and adipose tissue were removed, weighed (liver, thymus, and spleen), snap frozen, and stored at –80°C. All animal treatments were performed with permission of the Animal Ethical Committee (DEC Utrecht) and performed according to the [Law on Animal Experiments (1977)]. Animals were treated humanely and with regard for alleviation of suffering.
(§2) Compound analysis. Adipose and liver tissues samples were homogenized in Na2SO4, followed by extraction and clean-up in one step, and then eluted with 200 mL 1:1 hexane:dichloromethane on an open column packed with 40% wt/wt H2SO4-impregnated silica and KOH-silica. Blood plasma samples were extracted on an open column using Chem-Elut (Agilent Technologies, Santa Clara, CA, USA) and then NaCl eluted with 75 mL 3:2 hexane:2-propanol. Clean-up was performed using a miniaturized silica column (as described above), and samples were eluted using 30 mL hexane. Because the samples typically contained high levels of the analytes, only a small fraction was evaporated and analyzed. Prior to evaporation, we spiked a fraction of the samples with ^13C-labeled standards. We checked potential loss of analytes during extraction and clean-up by reextracting the samples using the identical protocol used for the samples. […] Tetradecane was added prior to evaporation. Sample analysis followed the U.S. Environmental Protection Agency Method 1613 ([U.S. Environmental Protection Agency 1994]) using single ion monitoring mode on an Agilent 6809N gas chromatograph (Agilent Technologies) coupled with a Micromass Ultima Autospec Ultra high-resolution mass spectrometer (HRMS; Waters Corp., Milford, MA, USA). Compounds were separated on a 60 m × 0.25 mm DB5-MS column ([…]; J&W Scientific, Folsom, CA, USA). The HRMS was operated with electron impact ionization with electron energy of 35 eV and an ion source temperature of 250°C. To reduce the number of analyses, samples were pooled before clean-up. […] This method was used because full congener–specific separation could be achieved on the high-resolution GC–HRMS. For lipid determination, samples were evaporated to dryness after the extraction step, and the amount of lipids was determined gravimetrically. Concentrations were calculated based on lipid weight and wet weight. The analysis of samples for the PCB-118 5,000 μg/kg BW dose failed during the procedure; thus analysis for this group could not be completed.
Plasma and PBL isolation. Blood from two mice was pooled (total volume of approximately 1.4 mL); plasma and PBLs were then isolated using Ficoll Paque gradient (GE Healthcare Europe, Diegem, Belgium). Plasma samples were stored at –80°C until compound analysis. Isolated lymphocytes were lysed with RLT buffer (QIAGEN, Venlo, the Netherlands) as described in the QIAGEN RNAeasy kit protocol and stored at –80°C until use.

[3] = Body and organ weight, hepatic lipid content; format: in vivo, female C57BL/6 mice; details: day 3; for % lipid / g liver: pooled liver samples
Procedure: as §1, §2
Statistical analysis. Statistical significant differences of the means and variances were determined using one-way analysis of variance (ANOVA) followed by Tukey-Kramer multiple comparisons. Differences were considered statistically significant at p < 0.05. Statistical calculations were performed using GraphPad 6.01 (GraphPad Software Inc.).

[4] = oral dose 15000 µg/kg bw, 3 days after single oral dose
[5] = oral dose 50000 µg/kg bw, 3 days after single oral dose
[6] = oral dose 150000 µg/kg bw, 3 days after single oral dose
[7] = oral dose 500000 µg/kg bw, 3 days after single oral dose
[8] = oral dose 5000 µg/kg bw, 3 days after single oral dose

Compound: Clc1cc2oc3c(Cl)c(Cl)c(Cl)cc3c2cc1Cl [Congener 4-PeCDF, 2,3,4,7,8-pentachlorodibenzofuran]
- WHO-TEF [1]: 0.3
- Adipose % dose / g tissue ([2]; oral dose 5 µg/kg bw, 3 days after single oral dose): 3.4 % dose / g tissue
- Adipose % dose / g tissue ([2]; oral dose 25 µg/kg bw, 3 days after single oral dose): 3.0 % dose / g tissue
- Adipose % dose / g tissue ([2]; oral dose 100 µg/kg bw, 3 days after single oral dose): 3.5 % dose / g tissue
- Body weight ([3]; oral dose 5 µg/kg bw): 19.3 ± 1.2 gram
- Liver weight ([3]; oral dose 5 µg/kg bw): 5.37 ± 0.32 % of bw
- Spleen weight ([3]; oral dose 5 µg/kg bw): 0.29 ± 0.05 % of bw
- Thymus weight ([3]; oral dose 5 µg/kg bw): 0.26 ± 0.07 % of bw
- % lipid / g liver ([3]; oral dose 5 µg/kg bw): 3.6%
- Body weight ([3]; oral dose 25 µg/kg bw): 19.0 ± 1.1 gram
- Liver weight ([3]; oral dose 25 µg/kg bw): 5.32 ± 0.19 % of bw
- Spleen weight ([3]; oral dose 25 µg/kg bw): 0.33 ± 0.04 % of bw
- Thymus weight ([3]; oral dose 25 µg/kg bw): 0.24 ± 0.04 % of bw
- % lipid / g liver ([3]; oral dose 25 µg/kg bw): 4.5%
- Body weight ([3]; oral dose 100 µg/kg bw): 19.2 ± 1.0 gram
- Liver weight ([3]; oral dose 100 µg/kg bw): 5.94 ± 0.27 % of bw
- Spleen weight ([3]; oral dose 100 µg/kg bw): 0.32 ± 0.03 % of bw
- Thymus weight ([3]; oral dose 100 µg/kg bw): 0.22 ± 0.04 % of bw
- % lipid / g liver ([3]; oral dose 100 µg/kg bw): 4.5%
- Body weight ([3]; oral dose 250 µg/kg bw): 19.8 ± 1.0 gram
- Liver weight ([3]; oral dose 250 µg/kg bw): 6.05 ± 0.42 % of bw
- Spleen weight ([3]; oral dose 250 µg/kg bw): 0.34 ± 0.04 % of bw
- Thymus weight ([3]; oral dose 250 µg/kg bw): 0.23 ± 0.03 % of bw
- Body weight ([3]; oral dose 1000 µg/kg bw): 20.2 ± 1.1 gram
- Liver weight ([3]; oral dose 1000 µg/kg bw): 6.35 ± 0.30 % of bw
- Spleen weight ([3]; oral dose 1000 µg/kg bw): 0.32 ± 0.02 % of bw
- Thymus weight ([3]; oral dose 1000 µg/kg bw): 0.22 ± 0.04 % of bw
- Dose with significant increase in liver weight vs vehicle controls ([3]; single oral dose): ≥ 100 µg/kg BW

Compound: Clc1ccc(-c2cc(Cl)c(Cl)cc2Cl)cc1Cl [PCB-118, 2,3´,4,4´,5-pentachlorobiphenyl]
- WHO-TEF [1]: 0.00003
- liver:adipose ratio (hepatic sequestration criterion 0.3) ([2]; 3 days after single oral dose): < 0.3
- Liver:adipose ratio ([2]; dose 15,000 μg/kg BW): 0.08±0.01
- Liver:adipose ratio ([2]; dose 50,000 μg/kg BW): 0.07±0.02
- Adipose % dose / g tissue [2, 4]: 32 % dose / g tissue
- Liver % dose / g tissue [2, 4]: 2.6 % dose / g tissue
- Plasma % dose / g tissue [2, 4]: 0.054 % dose / g tissue
- Adipose % dose / g tissue [2, 5]: 33 % dose / g tissue
- Liver % dose / g tissue [2, 5]: 2.2 % dose / g tissue
- Plasma % dose / g tissue [2, 5]: 0.067 % dose / g tissue
- Liver % dose / g tissue [2, 6]: 2.2 % dose / g tissue
- Plasma % dose / g tissue [2, 6]: 0.062 % dose / g tissue
- Plasma % dose / g tissue [2, 7]: 0.05 % dose / g tissue
- Body weight ([3]; oral dose 5000 µg/kg bw): 18.3 ± 0.9 gram
- Liver weight ([3]; oral dose 5000 µg/kg bw): 5.04 ± 0.22 % of bw
- Spleen weight ([3]; oral dose 5000 µg/kg bw): 0.32 ± 0.03 % of bw
- Thymus weight ([3]; oral dose 5000 µg/kg bw): 0.27 ± 0.03 % of bw
- % lipid / g liver ([3]; oral dose 5000 µg/kg bw): 2.7%
- Body weight ([3]; oral dose 15000 µg/kg bw): 18.3 ± 0.8 gram
- Liver weight ([3]; oral dose 15000 µg/kg bw): 5.06 ± 0.22 % of bw
- Spleen weight ([3]; oral dose 15000 µg/kg bw): 0.33 ± 0.05 % of bw
- Thymus weight ([3]; oral dose 15000 µg/kg bw): 0.23 ± 0.04 % of bw
- % lipid / g liver ([3]; oral dose 15000 µg/kg bw): 3.3%
- Body weight ([3]; oral dose 50000 µg/kg bw): 18.0 ± 1.8 gram
- Liver weight ([3]; oral dose 50000 µg/kg bw): 4.87 ± 0.41 % of bw
- Spleen weight ([3]; oral dose 50000 µg/kg bw): 0.30 ± 0.03 % of bw
- Thymus weight ([3]; oral dose 50000 µg/kg bw): 0.20 ± 0.05 % of bw
- % lipid / g liver ([3]; oral dose 50000 µg/kg bw): 3.5%
- Body weight ([3]; oral dose 150000 µg/kg bw): 19.2 ± 0.8 gram
- Liver weight ([3]; oral dose 150000 µg/kg bw): 6.14 ± 0.45 % of bw
- Spleen weight ([3]; oral dose 150000 µg/kg bw): 0.34 ± 0.04 % of bw
- Thymus weight ([3]; oral dose 150000 µg/kg bw): 0.21 ± 0.05 % of bw
- % lipid / g liver ([3]; oral dose 150000 µg/kg bw): 4.6%
- Body weight ([3]; oral dose 500000 µg/kg bw): 19.1 ± 1.0 gram
- Liver weight ([3]; oral dose 500000 µg/kg bw): 7.23 ± 0.29 % of bw
- Spleen weight ([3]; oral dose 500000 µg/kg bw): 0.31 ± 0.03 % of bw
- Thymus weight ([3]; oral dose 500000 µg/kg bw): 0.23 ± 0.04 % of bw
- Dose with significant increase in liver weight vs vehicle controls ([3]; single oral dose): ≥ 150,000 µg/kg BW

Compound: Clc1cc(Cl)c(-c2cc(Cl)c(Cl)cc2Cl)cc1Cl [PCB-153, 2,2´,4,4´,5,5´-hexachlorobiphenyl]
- liver:adipose ratio (hepatic sequestration criterion 0.3) ([2]; 3 days after single oral dose): < 0.3
- Liver:adipose ratio ([2]; dose 5,000 μg/kg BW): 0.08±0.02
- Liver:adipose ratio ([2]; dose 15,000 μg/kg BW): 0.11±0.02
- Liver:adipose ratio ([2]; dose 50,000 μg/kg BW): 0.08±0.03
- tissue uptake ([2]; female, C57BL/6, mouse, in vivo, oral dose 5000 µg/kg bw, 3 days after single oral dose): 0.075 %ID/g
- Adipose % dose / g tissue [2, 8]: 23 % dose / g tissue
- Liver % dose / g tissue [2, 8]: 1.8 % dose / g tissue
- Adipose % dose / g tissue [2, 4]: 25 % dose / g tissue
- Liver % dose / g tissue [2, 4]: 2.5 % dose / g tissue
- Plasma % dose / g tissue [2, 4]: 0.052 % dose / g tissue
- Adipose % dose / g tissue [2, 5]: 25 % dose / g tissue
- Liver % dose / g tissue [2, 5]: 2.0 % dose / g tissue
- Plasma % dose / g tissue [2, 5]: 0.060 % dose / g tissue
- Plasma % dose / g tissue [2, 6]: 0.050 % dose / g tissue
- Plasma % dose / g tissue [2, 7]: 0.042 % dose / g tissue
- Body weight ([3]; oral dose 5000 µg/kg bw): 18.8 ± 1.1 gram
- Liver weight ([3]; oral dose 5000 µg/kg bw): 4.71 ± 0.34 % of bw
- Spleen weight ([3]; oral dose 5000 µg/kg bw): 0.30 ± 0.04 % of bw
- Thymus weight ([3]; oral dose 5000 µg/kg bw): 0.25 ± 0.05 % of bw
- % lipid / g liver ([3]; oral dose 5000 µg/kg bw): 3.3%
- Body weight ([3]; oral dose 15000 µg/kg bw): 19.1 ± 0.5 gram
- Liver weight ([3]; oral dose 15000 µg/kg bw): 4.96 ± 0.10 % of bw
- Spleen weight ([3]; oral dose 15000 µg/kg bw): 0.36 ± 0.04 % of bw
- Thymus weight ([3]; oral dose 15000 µg/kg bw): 0.26 ± 0.04 % of bw
- % lipid / g liver ([3]; oral dose 15000 µg/kg bw): 3.9%
- Body weight ([3]; oral dose 50000 µg/kg bw): 19.6 ± 0.8 gram
- Liver weight ([3]; oral dose 50000 µg/kg bw): 5.15 ± 0.38 % of bw
- Spleen weight ([3]; oral dose 50000 µg/kg bw): 0.33 ± 0.04 % of bw
- Thymus weight ([3]; oral dose 50000 µg/kg bw): 0.29 ± 0.03 % of bw
- % lipid / g liver ([3]; oral dose 50000 µg/kg bw): 3.4%
- Body weight ([3]; oral dose 150000 µg/kg bw): 19.9 ± 1.1 gram
- Liver weight ([3]; oral dose 150000 µg/kg bw): 5.47 ± 0.37 % of bw
- Spleen weight ([3]; oral dose 150000 µg/kg bw): 0.34 ± 0.05 % of bw
- Thymus weight ([3]; oral dose 150000 µg/kg bw): 0.25 ± 0.04 % of bw
- Body weight ([3]; oral dose 500000 µg/kg bw): 18.8 ± 0.7 gram
- Liver weight ([3]; oral dose 500000 µg/kg bw): 5.80 ± 0.30 % of bw
- Spleen weight ([3]; oral dose 500000 µg/kg bw): 0.33 ± 0.05 % of bw
- Thymus weight ([3]; oral dose 500000 µg/kg bw): 0.24 ± 0.04 % of bw
- Dose with significant increase in liver weight vs vehicle controls ([3]; single oral dose): ≥ 500,000 µg/kg BW
- Dose with statistically significant decrease in relative thymus weight vs vehicle controls ([3]; single oral dose): 500,000 μg/kg BW
